± gives the expanded uncertainty stated by the source.
How the values were obtained:
[1] = refractive index (Na D-line) (dimensionless); conditions: 293.15 K; 101.33 kPa; Liquid; Standard Abbe refractometry
[2] = 293.15 K; 101.33 kPa; Liquid; Vibrating tube method

| SMILES | refractive index [1] | mass density [2] [kg/m3] |
| --- | --- | --- |
| C=CC(=O)O [propenoic acid] | 1.4223 ± 0.0007 | 1051.22 ± 0.1 |
| COC1CCCC1 [methoxycyclopentane] | 1.4187 ± 0.0007 | 860.43 ± 0.12 |
